Experimental data published in patent US10258599B2, “Compounds for use in the prevention or treatment of cancer” (SEMMELWEIS UNIVERSITY, priority 2014, dated 2019).
Entries after “also recorded” stand apart in the source; their conditions may differ.

Tests used:
[1] = tested on: lung carcinoma; assay: Longevity study on FVB/N mice: spontaneous lung carcinoma at autopsy; type: in vivo, mouse; settings: for Number of detected lung carcinoma: 18-month, 4 dissected mice
Description: Body weight is measured bimonthly.
For monitoring, we planned to sacrifice mice from each group at 6-month, 1-year, 1.5-year and 2-year time-points; the rest of the animals are kept until spontaneous death.
The results are shown in Table 4 and on FIGS. 19 and 20. Significance levels were calculated with two-sided Chi-square test.

[2] = tested on: fibromyxosarcoma; assay: Longevity study: manifestation of subcutaneous fibromyxosarcoma (TMS effect); type: in vivo, rat; settings: for tumor manifestation suppressing (TMS) effect versus saline: Kaplan-Meier, P<0.001
Description: (§1) The longevity study was performed on 200 male rats received from the breeding colony of the Semmelweis University. The rats were born at the end of February of 2010. After 2-month acclimation period the rats were divided randomly into 5 even groups. The longevity study started at the beginning of May 2010. Animals were observed until their natural deaths. The data in this study represent the changes observed until Oct. 31, 2012, since in the saline-treated group the last animal died on Oct. 31, 2012. As will be shown later a few rats in the enhancer-treated groups were still alive on Nov. 1, 2012.
(§2) During the longevity study 5 rats were housed together in polycarbonate cages (height: 18 cm; wide: 42 cm; length: 44 cm) with a stainless steel on the top. Cage bedding was renewed 3 times a week (Monday, Wednesday and Friday). Bodyweight was measured once every month. The treatment started at the end of the second month of their age.
We carefully observed the appearance of the subcutaneous tumor and followed the development of the tumor until death. Histological analysis was performed post mortem on several rats taken from each group as examples.
The subcutaneous tumors developed in the rats were measured by the two largest diameters. After sacrificing the animals, the tumors were removed, photographs were taken. Tissues were fixed immediately after removal in 10% neutral formalin (in PBS, pH7.0) for 24 hours at room temperature, dehydrated and embedded in paraffin. 3-4 micrometer thick sections were cut and stained by hematoxylin and eosin (HE) as a routine.
(§3) Significance in the performance between the groups in the shuttle box was evaluated by multi-factor analysis of variance (ANOVA). Significance regarding the span of time from tumor manifestation until death in rats and regarding aging related changes in bodyweight treated chronically with the enhancer substances was analyzed by One-way ANOVA. Statistical analysis of survival rate and tumor manifestation was performed by the Kaplan-Meier method.

[3] = tested on: male Wistar rats (Charles River); assay: Longevity study: survival of rats treated 3 times a week s.c.; type: in vivo, rat
Description: Experiments were carried out on male Wistar rats (Charles River) weighing 250-350 g received from the breeding colony of Semmelweis University. The animals were kept in a 12-hour light-dark cycle and under condition of controlled temperature (22±2° C.) and relative humidity (55±5%). Room temperature and relative humidity was checked daily. The rats were maintained on standard laboratory chow and tap water ad libitum. All procedures conformed to the European Convention for the protection of vertebrate animals used for experimental and other scientific purposes. The study was approved by the Animal Ethics Committee of Semmelweis University, Budapest (permission number: 1810/003/2004)
as §1, §2
To avoid the mixing of the groups and individuals, saline-treated rats were signed blue from 1 to 40; D-treated rats were signed green from 1 to 80 (1-40: rats treated with 0.1 mg/kg and 41-80: rats treated with 0.001 mg/kg); B-treated rats were signed black from 1 to 80 (1-40: rats treated with 0.05 mg/kg and 41-80: rats treated with 0.0001 mg/kg).
as §3

[4] = tested on: Daoy HTB-186 cell line; assay: MTT proliferation assay, Daoy medulloblastoma cells; type: cell-based, human; settings: for proliferation of cultured medulloblastoma cells: monotherapy, nine concentrations 10^-14 to 10^-6 M, 72 hours
Description: Human medulloblastoma cell line, Daoy was purchased from ATCCC, UW-228 was obtained from the courtesy of Professor Silber (Univerity of Washington, Seattle, Wash., USA).
Daoy and UW-228-2 cell lines were maintained in culture medium (each 500 ml Minimum Essential Medium Eagle, Alpha Modification (M8042, Sigma, St Louis, USA) with 50 ml FCS (Gibco), 40 mg Gentamicin (Sandoz), 5 ml sodium-pyruvate (S8636, Sigma, St Louis, USA), 5 ml non-essential-amino acid solution (M7145, Sigma, St Louis, USA), 10 ml L-glutamin (Sigma, St Louis, USA) at 37° C. in humified 5% CO2.
In each well 3×10^3 Daoy or UW-228-2 cells were seeded in 96-well plates (Sarstedt), solved in 100 μl of its own medium with 10% FCS. 24 hours after seeding, cells were treated for 72 hours by drugs solved in further 100 μl medium. First, both cell lines were treated by (−)-BPAP and (−)-deprenil in monotherapy to determine its dose-effect curves in concentration of 10^−6, 10^−7, 10^−8, 10^−9, […], 10^−11, 10^−12, 10^−13 and 10^−14 M. In combined treatment 10^−3, 3.3×10^−4, […] and 3.7×10^−5 M of temozolomide (Schering Plough, USA) or 0.04, 0.2, 1, 5 μM of Cisplatin (Ebewe Pharma, Austria) or 0.04, 0.2, 1, 5 μM of etoposide (Ebewe Pharma, Austria) or 10^−7, 10^−6, 10^−5 and 10^−4 μM (UW228-2) or 0.001, 0.005, 0.025 and 0.125 μM (Daoy) of Vincristin (Richter Gedeon, Hungary) were applied in monotherapy or combined with 10^−13 or 10^−8 M of (−)-BPAP or (−)-deprenil.
Cell proliferation was evaluated by MTT (3-(4,5-Dimethylthiazol-2-yl)-2,5-diphenyltetrazolium bromide) assay (M5655, Sigma) after 72-hour treatment by the method described in manufacturer's protocol.

[5] = 0.0001 mg/kg, N=40, listed as BPAP

CCCN[C@H](CCC)Cc1cc2ccccc2o1 [(−)-BPAP, (2R)-1-(1-benzofuran-2-yl)-N-propylpentane-2-amine]
Number of detected lung carcinoma ([1]; 0.0001 mg/kg daily): 0 | Number of detected lung carcinoma ([1]; 0.05 mg/kg daily): 1 | manifestation of lung carcinoma ([1]; extremely low dose (0.0001 mg/kg), 1.5-year (FIG. 20)): completely prevented the manifestation of lung carcinoma | tumor manifestation suppressing (TMS) effect versus saline ([2]; 0.0001 mg/kg): significantly decreased; also recorded: more potent in suppressing tumor manifestation than 0.1 mg/kg (−)-deprenyl | tumor manifestation suppressing (TMS) effect versus saline ([2]; 0.0001 mg/kg, listed as BPAP): highly efficient; also recorded: suppressed the manifestation of the fibromyxosarcoma significantly | month of age in which the first animal manifested the tumor ([2]; 0.0001 mg/kg, N=40): 20 month | rats in the group manifested the tumor to the end of the 32nd month ([2]; 0.0001 mg/kg, N=40): 8 rats | rats manifested the fibromyxosarcoma when the group completed the 30th month of life ([2]; 0.0001 mg/kg, N=40): 8 rats | month of age in which the first animal manifested the tumor [2, 5]: 25 month | tumor manifestation suppressing (TMS) effect versus saline ([2]; 0.05 mg/kg): significantly decreased | tumor manifestation suppressing (TMS) effect versus saline ([2]; 0.05 mg/kg, listed as BPAP): suppressed the manifestation of the fibromyxosarcoma significantly | month of age in which the first animal manifested the tumor ([2]; 0.05 mg/kg, N=40): 13 month | rats in the group manifested the tumor to the end of the 32nd month ([2]; 0.05 mg/kg, N=40): 7 rats | rats manifested the tumor when the group completed the 30th month of life ([2]; 0.05 mg/kg, N=40): 7 rats | span of time from tumor manifestation until death ([2]; chronic treatment, versus saline (FIG. 13), One-way ANOVA): no significant difference | lifespan compared with saline-treated peers ([3]; 0.0001 mg/kg 3 times a week, P<0.05): lived significantly longer | month of age in which the first animal died ([3]; 0.0001 mg/kg s.c. 3 times a week, N=40): 16 month | rats remained alive to the end of the 32nd month [3, 5]: one and One | month of age in which the first animal died ([3]; 0.05 mg/kg s.c. 3 times a week, N=40): 14 month | lifespan compared with saline-treated peers ([3]; both doses of the longevity study (FIGS. 5-8)): significantly longer | effectiveness of tumor-cell proliferation inhibiting agents in combination ([4]; 10^-13 or 10^-8 M combined with temozolomide, Cisplatin, etoposide or Vincristin): did not change the effectiveness | proliferation of cultured medulloblastoma cells [4]: did not inhibit the proliferation | proliferation of cultured medulloblastoma cells ([4]; listed as BPAP): none of the applied concentrations did Deprenyl or BPAP influence the proliferation
